From ChEMBL document CHEMBL1201862, “PubChem BioAssay data set” (2004) come the findings set out here.

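Values below derive from 48-hour exposures of cells grown in 96-well plates, with endpoints linearly interpolated between the two concentrations bracketing the appropriate inhibition level. Abbreviation: GI50, concentration required for 50% inhibition of growth.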 Active and inactive are the calls of the source. No stated cut-off is given here; in the data, active = GI50 up to about 1.1 µM and inactive = higher.

Test systems include CAKI-1; EKVX; HCT-15; HOP-62; HOP-92; LOX IMVI; M14; MDA-MB-435; MOLT-4; Malme-3M; NCI-H226; NCI-H522; RPMI-8226; SK-MEL-2; SNB-75; TK-10; UACC-257; UACC-62; HCC 2998.
Common to all, as to test: NCI-60 cell line screen, 48 h

Consider `CC1=NNC(=O)C1C(CC(=O)c1c[nH]c2ccccc12)C(=O)O` (stereo not given), for which the GI50 with CAKI-1 was > 100 µM (inactive); with EKVX, > 100 µM (inactive); with HCT-15, 92.9 µM; with HOP-62 it was > 100 µM (inactive); in the test on HOP-92 it was > 100 µM (inactive); with LOX IMVI, 97.3 µM (inactive). For the same compound, the GI50 is > 100 µM (inactive) with M14; 68.5 µM (inactive) with MDA-MB-435; 49 µM (inactive) in the test on MOLT-4; > 100 µM (inactive) with Malme-3M; > 100 µM (inactive) in the test with NCI-H226; 72.1 µM (inactive) with NCI-H522. For the same compound, the GI50 is 35.1 µM (inactive) in the test with RPMI-8226; > 100 µM (inactive) in the test on SK-MEL-2; > 100 µM (inactive) in the test on SNB-75; > 100 µM (inactive) with TK-10; > 100 µM (inactive) in the test on UACC-257; > 100 µM (inactive) in the test on UACC-62.

`C/C(=C\COP(=O)(O)OP(=O)(O)O)CC/C=C(\C)CNc1ccccc1`: the GI50 in the test on CAKI-1 is > 50 µM (inactive); in the test on EKVX, > 50 µM (inactive); in the test on HCT-15, greater than 50 µM; with HOP-62, > 50 µM (inactive); in the test on LOX IMVI it was > 50 µM (inactive); in the test with M14, > 50 µM (inactive). The GI50 was > 50 µM (inactive) in the test on MDA-MB-435; 20.1 µM (inactive) with MOLT-4; > 50 µM (inactive) in the test with NCI-H226; > 50 µM (inactive) in the test with NCI-H522; 0.005 µM (active) with RPMI-8226; > 50 µM (inactive) with SK-MEL-2. Further, the GI50 was 27.5 µM (inactive) in the test on SNB-75, 39.4 µM (inactive) with TK-10, 43 µM (inactive) in the test with UACC-257 and > 50 µM (inactive) in the test on UACC-62.

Regarding `Cc1nnc([C@@]2(C)CC[C@H]3[C@@H](CC=C4C[C@@H](O)CC[C@@]43C)[C@@H]2CC#N)o1`, the GI50 with CAKI-1 was > 100 µM (inactive); in the test on EKVX, > 100 µM (inactive); with HCT-15, greater than 100 µM; in the test on HOP-62, > 100 µM (inactive); with HOP-92, > 100 µM (inactive); in the test with LOX IMVI, > 100 µM (inactive). Moreover, the GI50 in the test with M14 was > 100 µM (inactive); in the test on MDA-MB-435, > 100 µM (inactive); with MOLT-4, > 100 µM (inactive); in the test on Malme-3M, > 100 µM (inactive); in the test with NCI-H226, > 100 µM (inactive); in the test with NCI-H522, 22.5 µM (inactive). Further, the GI50 in the test with RPMI-8226 was 97.3 µM (inactive); in the test on SK-MEL-2, > 100 µM (inactive); with SNB-75, 27 µM (inactive); in the test on TK-10 it was > 100 µM (inactive); in the test with UACC-257 it was 97.5 µM (inactive); in the test on UACC-62, > 100 µM (inactive).

For the compound `NC(=O)CNC(=O)[C@@H]1C[C@@H](OCCC(=O)O)CN1C(=O)OCc1ccccc1`, the GI50 is > 100 µM (inactive) in the test with EKVX; greater than 100 µM in the test with HCT-15; > 100 µM (inactive) with HOP-62; > 100 µM (inactive) in the test on LOX IMVI; > 100 µM (inactive) in the test on M14; > 100 µM (inactive) with MDA-MB-435. The GI50 with MOLT-4, with Malme-3M, with NCI-H226, in the test on NCI-H522, in the test with RPMI-8226 and in the test with SK-MEL-2 was > 100 µM (inactive) each time. Also, the GI50 in the test on SNB-75, in the test with TK-10, with UACC-257 and with UACC-62 was > 100 µM (inactive) throughout.

As for `CC(=O)Nc1ccc2nncnc2c1`, the GI50 was > 100 µM (inactive) in the test with CAKI-1; > 100 µM (inactive) in the test with EKVX; greater than 100 µM in the test with HCT-15; > 100 µM (inactive) in the test on HOP-62; > 100 µM (inactive) in the test on LOX IMVI; > 100 µM (inactive) with M14. In addition, the GI50 in the test on MDA-MB-435, in the test with MOLT-4, in the test with NCI-H226, with NCI-H522, in the test with RPMI-8226 and with SK-MEL-2 was > 100 µM (inactive) throughout. For the same compound, the GI50 in the test with SNB-75, in the test on TK-10, in the test with UACC-257 and with UACC-62 was > 100 µM (inactive) throughout.

For `CCOP(=O)(CC(=O)C1CC1)OCC`, the GI50 in the test with CAKI-1 was > 100 µM (inactive); with EKVX, > 100 µM (inactive); in the test on HCC 2998, > 100 µM (inactive); in the test on HCT-15, greater than 100 µM; in the test with HOP-62, > 100 µM (inactive); with LOX IMVI, > 100 µM (inactive). The GI50 in the test on M14, in the test on MOLT-4, in the test with Malme-3M, in the test with NCI-H226, with NCI-H522 and in the test on SK-MEL-2 was > 100 µM (inactive) in each case. The GI50 in the test on SNB-75, in the test on TK-10, in the test with UACC-257 and in the test with UACC-62 was > 100 µM (inactive) in each case.

Consider `CC(C)=NN/C(=N\c1ccc(Cl)cc1)NS(=O)(=O)c1cc(Cl)c(Oc2ccc([N+](=O)[O-])cc2Cl)c(Cl)c1`, for which the GI50 in the test on CAKI-1 was > 100 µM (inactive); with EKVX it was 29.4 µM (inactive); in the test on HCT-15, greater than 100 µM; in the test with HOP-62, > 100 µM (inactive); with HOP-92 it was 51.8 µM (inactive); in the test with LOX IMVI, > 100 µM (inactive). Besides, the GI50 is 75.9 µM (inactive) in the test on M14; 79.3 µM (inactive) in the test with MDA-MB-435; 25.4 µM (inactive) with MOLT-4; 70 µM (inactive) with Malme-3M; > 100 µM (inactive) with NCI-H226; 91 µM (inactive) with NCI-H522. The GI50 in the test on RPMI-8226 is 29.6 µM (inactive); in the test on SK-MEL-2, > 100 µM (inactive); in the test with TK-10 it was > 100 µM (inactive); with UACC-257 it was > 100 µM (inactive); in the test on UACC-62, > 100 µM (inactive).

Consider `COc1ccc(/C(C)=N/NC(=O)c2ccncc2)cc1OC`, for which the GI50 in the test on CAKI-1 was > 10 µM (inactive); with HCC 2998, > 10 µM (inactive); in the test with HCT-15 it was greater than 10 µM; in the test with HOP-62, > 10 µM (inactive); in the test on HOP-92, > 10 µM (inactive); in the test on LOX IMVI it was > 10 µM (inactive). The GI50 was > 10 µM (inactive) in the test on M14; > 10 µM (inactive) in the test on MOLT-4; > 10 µM (inactive) with Malme-3M; 2.82 µM (inactive) in the test on NCI-H226; > 10 µM (inactive) in the test on RPMI-8226; > 10 µM (inactive) in the test on SNB-75. The GI50 in the test on UACC-257 and with UACC-62 was > 10 µM (inactive) throughout.

Turning to `NC(=O)C1Cc2cc3c(cc21)OCO3` (stereo not given), the GI50 with CAKI-1 is > 100 µM (inactive); in the test with EKVX, > 100 µM (inactive); with HCC 2998 it was > 100 µM (inactive); in the test on HCT-15, greater than 100 µM; in the test with HOP-62 it was > 100 µM (inactive); in the test with LOX IMVI, > 100 µM (inactive). Also, the GI50 in the test with M14, in the test on Malme-3M, in the test on NCI-H226, in the test on NCI-H522, in the test on SNB-75 and with TK-10 was > 100 µM (inactive) in each case. For the same compound, the GI50 with UACC-257 and in the test with UACC-62 was > 100 µM (inactive) throughout.
